Results as given in patent US20220175756A1, “APPLICATION OF COMBINATION OF QUINOLINE DERIVATIVE AND IMMUNOMODULATOR IN PREPARATION OF ANTITUMOR DRUGS” (CHONGQING PHARMACEUTICAL INDUSTRIAL RESEARCH INSTITUTE CO., …, priority 2019, published 2022).

System: CT26 mouse colon carcinoma cell strain
Assay: In vivo anti-tumor activity in mouse CT26 colon tumor model
Procedure: The experimental purposes was to investigate the in vivo anti-tumor effect of the combination of the test compound with a mouse anti-PD-1 antibody against the mouse colon cancer in CT26 tumor model.
Female Balb/c mice were subcutaneously inoculated with CT26 mouse colon carcinoma cell strain, and randomly grouped based on their body weight, after inoculation. And, they were administered as follows.
To the first group (a control group), the administration was started in the afternoon of the day of vaccination in a way that vehicle 1 (10% DMSO+10% Solutol+80% DDH2O) was administered intragastrically twice a day at a dosage of 0.1 mL/10 g body weight each time, and when the tumor had grown to a volume of about 60 mm^3 after the inoculation, it started to do administration in a way that vehicle 2 (DPBS) was given twice a week through intraperitoneal injection at a dosage of 0.1 mL/10 g body weight at each time.
To the second group, when the tumor had grown to a volume of about 60 mm^3 after the inoculation, it started to do administration in a way that anti-mouse PD-1 antibody (RMP1-14, supplied by BioXcell) was given through intraperitoneal injection twice a week at a dosage of 3 mg/kg body weight at each time. […]
During the experiment, the mice were weighed three times a week, and after the tumor formed, the tumor volume was measured three times a week at each time when the body weight was measured, and calculated following the equation: length×width^2/2. Tumor proliferation rate was calculated following the equation: Tumor proliferation rate=Tumor volume in the treatment group/Tumor volume in the control group×100%.
The differences between groups were statistically analyzed by Student's t-test, and p<0.05 was considered to be a significant difference.

COc1cc2nccc(Oc3ccc(NC(=O)NC4CC4)c(Cl)c3F)c2cc1C(N)=O [Example 1]
Tumor proliferation rate (day 25, Example 1 10 mg/kg intragastrically once a day in combination with anti-mouse PD-1 antibody RMP1-14 3 mg/kg i.p. twice a week, female Balb/c mice, p<0.01): 15.38% | Anti-tumor activity in combination with PD-1 antibody (in words) (mouse CT26 tumor model, combination with PD-1 antibody): significant anti-tumor activity | Effect on anti-tumor effect of PD-1 antibody (in words) (tumor volumes on day 25, combination group vs single antibody group, p<0.05): significantly enhanced anti-tumor effect on PD-1 antibody
